Our source for the TGI and GI50 values is PubChem BioAssay (NCI).

Holding throughout (assay): DTP human tumour cell line panel, 48 h
Assay [1] relates to LXFL 529 NSCLC.
Assay [2] concerns KM20L2 colon.
The subject of assay [3] is DLD-1 colon.
Assay [4] deals with M19-MEL melanoma.
Assay [5] has as its system SNB-78 CNS.
For assay [6], the system named is RXF-631 renal.
Assay [7] deals with XF 498 CNS.
Assay [8] deals with HOP-18 NSCLC.
The test system of assay [9] is MDA-N.

Each structure is given as a SMILES string.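 Test compounds were applied to cells in 96-well plates for 48 hours at 5 doses. GI50 marks 50% less growth. TGI: total growth inhibition.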 Some results are limits rather than exact numbers.

With `CC1=NC(C)=C(/C(C)=N/NC(=O)c2ccccc2O)C(C)/C1=C(/C)NNC(=O)c1ccccc1O` (configuration not stated), the TGI in assay [1], in assay [2], in [3], in assay [4], in assay [5] and in assay [6] was greater than 100 µM throughout. In assay [7], the TGI – broadly, the concentration at which net growth stops – was 85.9 µM.

For `CC(=O)O[C@H]1CC[C@@]2(C)C(=CC[C@H]3C(CC#N)[C@@](C)(C#N)CCC32)C1` (some centres not stated), the TGI in assay [1], in assay [2], in [3], in assay [4], in assay [5] and in [7] was greater than 100 µM in each case.

In the case of `CSc1nc2c(nc(N)n2C2OC(CO)C(O)C(O)C2O)c(=O)[nH]1` (configuration not stated), the TGI in [1], in assay [2], in assay [3], in [4], in assay [5] and in assay [6] was greater than 100 µM throughout. Besides, the TGI in [8] and in [7] was greater than 100 µM throughout.

Molecule `Oc1cccc2ccc(SSc3ccc4cccc(O)c4n3)nc12` returned a TGI in assay [9] of 38.6 µM.

For `COc1nc(NC2OC(COC(C)=O)C(OC(C)=O)C(OC(C)=O)C2OC(C)=O)c(N=C(C)C(C)=O)c(=O)n1C` (configuration not stated), the TGI in [1], in assay [2], in assay [3], in assay [4], in assay [5] and in [8] was greater than 100 µM throughout. This molecule came in with a TGI in [7] greater than 100 µM.

Take `Cn1cnc(SC2=CC(=O)C=C3S[C@H]4C[C@@]23c2c(c(O)c3c5c2=NCCC=5C=N3)N4)c1CC(N)C(=O)O` (some centres not stated): the GI50 – broadly, the concentration giving 50% growth inhibition – is 2 µM in [9]; 2.48 µM in assay [2]; 12.6 µM in [3]; 15.3 µM in [5]; 17.6 µM in assay [7]. Further, the TGI was 3.63 µM in assay [9]; 11.6 µM in assay [2]; 26.3 µM in assay [3]; 3.89 µM in [4]; 38.4 µM in [5]; 30.7 µM in assay [8]. For the same molecule, in [7], the TGI is 31.4 µM.

Consider `COc1ccc(/C=C/c2cc(OC)c(OC)c(OC)c2)cc1OC`, for which the TGI in assay [1] is greater than 100 µM; in assay [2], greater than 100 µM; in [3] it was greater than 100 µM; in assay [5], 91.9 µM; in [6], greater than 100 µM; in assay [8], greater than 100 µM. Also, in assay [7], the TGI was greater than 100 µM.

Turning to `CC(=O)OC1CC2C(C)(C)C(=O)C=C[C@]2(C)C2CCC3(C)C(c4ccoc4)C(=O)C4OC43[C@]12C` (some centres not stated), the TGI in assay [1] is greater than 100 µM; in assay [2] it was 32.1 µM; in [3], 34 µM; in assay [4], 32.5 µM; in [5], greater than 100 µM; in assay [8], greater than 100 µM.

For the molecule `O=c1cccccc1O`, in assay [9], the TGI is greater than 100 µM.

On to `C/C(=N\NC(=O)c1ccccc1O)c1c(O)cc(C)oc1=O`, for which the TGI in [1], in [2], in assay [3], in assay [4], in [5] and in [8] was greater than 100 µM in each case.

On to `O=[N+]([O-])c1cc(I)cc(/C=N/NS(=O)(=O)c2ccc(F)cc2)c1O`, for which the TGI in [1] was 43.1 µM; in assay [2] it was greater than 100 µM; in assay [3] it was greater than 100 µM; in assay [4], 86.7 µM; in assay [5] it was 69 µM; in assay [6], 57.9 µM. The same molecule returned a concentration for total growth inhibition (TGI) in assay [8] of 53.2 µM.

Consider `Oc1cccc2cccnc12`, for which the TGI in [1], in [9], in assay [3] and in assay [8] was greater than 100 µM in each case.

With `Cc1ccc(NC(=O)CCc2nnc3s/c(=C\C=C\c4ccccc4)c(=O)n23)cc1`, the TGI in assay [1], in assay [9], in assay [2], in assay [3], in assay [4] and in assay [5] was greater than 100 µM each time. Also, the TGI in assay [6], in assay [8] and in assay [7] was greater than 100 µM in each case.

For `Cn1nc(-c2ccccc2)c2c(/C=C/c3ccc(F)cc3)onc2c1=O`, the TGI in assay [1], in assay [2], in assay [3], in assay [4], in [8] and in assay [7] was greater than 100 µM in each case.

For `CCCCCCCCCCNC(=S)OC`, the TGI in assay [1] is greater than 100 µM; in assay [2], greater than 100 µM; in assay [3], greater than 100 µM; in assay [4], 69.4 µM; in assay [5], greater than 100 µM; in assay [6] it was greater than 100 µM. Also, the TGI in assay [8] is greater than 100 µM.

For the molecule `Cn1c(=O)nc2n(-c3ccc(F)c(F)c3)c3ccccc3nc-2c1=O`, the TGI in [1] came to 64.9 µM; in assay [2], 23.8 µM; in assay [3], 85.3 µM; in assay [4], 3.44 µM; in [5] it was 54.6 µM; in assay [6], 62.4 µM. Also, the figures for the TGI in [8] and in assay [7] were 97.7 µM and 36.2 µM, respectively.

Consider `CC(=O)N(N=O)c1ccc(N(N=O)C(C)=O)cc1`, for which the TGI in assay [1], in assay [2], in assay [3], in assay [4] and in [5] was greater than 100 µM throughout.
